Calls of active or inactive are those of the source.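 The calls were made as follows: active = IC50 below 100 µM in the TR-FRET assay, unless also active in the caspase-3 counter assay; inactive = the rest, including compounds also active in caspase-3.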

For the assay, the target named is Caspase-3 (Homo sapiens) (UniProt P42574). The assay can be described thus: inhibition of recombinant caspase-3 activity – biochemical, luminescence, Caspase-Glo 3/7, counter-screen for UBC13 polyubiquitin inhibitor project, SAR follow-up (AID 504680). As to conditions: recombinant caspase-3, Caspase-Glo luminescence, 60 min. (In general: Counterscreens check selectivity or assay interference.)
Sequence of Caspase-3 (Homo sapiens) (P42574 whole entry, looked up): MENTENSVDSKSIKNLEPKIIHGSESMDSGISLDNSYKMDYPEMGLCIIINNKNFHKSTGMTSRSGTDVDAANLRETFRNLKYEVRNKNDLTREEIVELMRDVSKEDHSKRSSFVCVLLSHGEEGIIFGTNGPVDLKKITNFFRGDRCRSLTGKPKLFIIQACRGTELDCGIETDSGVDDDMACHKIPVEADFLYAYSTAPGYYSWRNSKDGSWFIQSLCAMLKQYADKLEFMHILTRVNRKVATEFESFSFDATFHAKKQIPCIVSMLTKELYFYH
Consider `N#Cc1ccccc1Cn1c(=O)n(CCCC(=O)NC2CCN(Cc3ccccc3)CC2)c(=O)c2ccccc21`, for which the IC50 is > 100 µM (inactive).
For the compound `CC1CCCC(C)N1CCCNC(=O)C1CCCN(c2ncnc3c2nc2n3CCCCC2)C1` (centres undefined), the IC50 is > 100 µM (inactive).
Take `Cc1ccc2nc(N(CCCN(C)C)C(=O)c3ccc4c(c3)CCCC4)sc2c1`: the IC50 is > 100 µM (inactive).
The value for `O=C(CCCn1c(=O)c2ccccc2n(Cc2cccc(F)c2)c1=O)NC1CCN(Cc2ccccc2)CC1` was > 100 µM (inactive); that for `CCN(Cc1ccccc1)S(=O)(=O)c1ccc(C(=O)N(CCCN(C)C)c2nc3cc4c(cc3s2)OCO4)cc1` was > 100 µM (inactive).
Next, `O=C1c2cccc3cccc(c23)C(=O)N1CCN1CCN(CC(O)COc2ccc3c(c2)OCO3)CC1` (centres undefined): > 100 µM (inactive).
Regarding `O=C(Nc1ccc(F)c(Cl)c1)C1CCN(c2ncnc3c2nc2n3CCCCC2)CC1`, the IC50 was > 100 µM (inactive).
As for `Cc1ccc2c(c1)C1CN(C)CCC1N2C(=O)CCCN1C(=O)c2cccc3cccc(c23)C1=O` (centres undefined), the IC50 was > 100 µM (inactive).
For the compound `O=C(CCCCCN1C(=O)c2cccc3cccc(c23)C1=O)NCCO`, the IC50 was > 100 µM (inactive).
`O=C1c2cccc3cccc(c23)C(=O)N1CCN1CCN(CC(O)COc2ccc3ccccc3c2)CC1` (centres undefined): the IC50 was > 100 µM (inactive).
In the case of `Cc1cccc(C)c1NC(=O)Cn1c(=O)n(CCCC(=O)NC2CCN(Cc3ccccc3)CC2)c(=O)c2ccccc21`, the IC50 was > 100 µM (inactive).
Consider `Cc1cc(C)cc(OCCNC(=O)CCCCCN2C(=O)c3ccccc3C2=O)c1`, for which the IC50 is > 100 µM (inactive).
Turning to `Cc1ccc(C)c(CN2CCC(CNC(=O)C3CCCN(c4ncnc5c4nc4n5CCCCC4)C3)CC2)c1` (centres undefined), the IC50 was > 100 µM (inactive).
On to `CN(C)CCCN(C(=O)c1ccc(C(=O)c2ccccc2)cc1)c1nc2cc3c(cc2s1)OCO3`, for which the IC50 is > 100 µM (inactive).
Consider `O=C(CCCCCN1C(=O)c2ccccc2C1=O)Nc1ccc(S(=O)(=O)Nc2ncccn2)cc1`, for which the IC50 was > 100 µM (inactive).
In the case of `Cc1ccc2nc(N(CCCN(C)C)C(=O)c3ccc(S(=O)(=O)N4CCc5ccccc5C4)cc3)sc2c1`, the IC50 was > 100 µM (inactive).
Regarding `Cc1nc2ccccc2c(=O)n1NC(=O)c1ccc(OC(F)F)cc1`, the IC50 is > 100 µM (inactive).
For the compound `O=C1c2cccc3cccc(c23)C(=O)N1CC1CCN(CC(O)COCc2ccc3c(c2)OCO3)CC1` (centres undefined), the IC50 is > 100 µM (inactive).
Next, `Cc1cccc(OCC(O)CN2CCN(CCN3C(=O)c4cccc5cccc(c45)C3=O)CC2)c1C` (centres undefined): > 100 µM (inactive).
For the compound `COc1cccc(OCC(O)CN2CCN(CCN3C(=O)c4cccc5cccc(c45)C3=O)CC2)c1` (centres undefined), the IC50 was > 100 µM (inactive).
On to `CN(CCNC(=O)C1CCN(c2ncnc3c2nc2n3CCCCC2)CC1)Cc1ccccc1`, for which the IC50 was > 100 µM (inactive).
On to `CN(C)CCCN(C(=O)c1ccc(S(=O)(=O)N2CCCCCC2)cc1)c1nc2cc3c(cc2s1)OCCO3`, for which the IC50 is > 100 µM (inactive).
`Cc1ccccc1NC(=S)NC(=O)CCCCCN1C(=O)c2ccccc2C1=O`: the IC50 is > 100 µM (inactive).
As for `O=C(C1CCN(c2ncnc3c2nc2n3CCCCC2)CC1)N1CCN(c2ccccn2)CC1`, the IC50 was > 100 µM (inactive).
On to `CCOc1cccc2sc(N(CCCN(C)C)C(=O)c3ccc(S(=O)(=O)N4CCc5ccccc5C4)cc3)nc12`, for which the IC50 is > 100 µM (inactive).
On to `CN(C)CCCN(C(=O)c1ccc2c(c1)CCCC2)c1nc2ccc(Cl)cc2s1`, for which the IC50 was > 100 µM (inactive).
For `CCOc1cccc2sc(N(CCCN(C)C)C(=O)c3ccc(S(=O)(=O)N(C)Cc4ccccc4)cc3)nc12`, the IC50 was > 100 µM (inactive).
Regarding `CCCN1CCN(C(=O)C2CCN(c3ncnc4c3nc3n4CCCCC3)CC2)CC1`, the IC50 was > 100 µM (inactive).
As for `CCN(Cc1ccccc1)S(=O)(=O)c1ccc(C(=O)N(CCCN(C)C)c2nc3cc4c(cc3s2)OCCO4)cc1`, the IC50 is > 100 µM (inactive).
In the case of `CC1CC(C)CN(C(=O)C2CCN(c3ncnc4c3nc3n4CCCCC3)CC2)C1` (centres undefined), the IC50 is > 100 µM (inactive).
In the case of `NNC(=O)c1ccc(CN2C(=O)c3cccc4cccc2c34)cc1`, the IC50 was > 100 µM (inactive).
The value for `COC(=O)c1ccc(OCC(O)CN2CCN(CCN3C(=O)c4cccc5cccc(c45)C3=O)CC2)cc1` (centres undefined) was > 100 µM (inactive).
`O=C(NCC1CCN(Cc2cccc(Cl)c2)CC1)C1CCCN(c2ncnc3c2nc2n3CCCCC2)C1` (centres undefined): the IC50 was > 100 µM (inactive).
In the case of `CC(NC(=O)CCCCCN1C(=O)c2ccccc2C1=O)c1nc(-c2ccccc2)no1` (centres undefined), the IC50 was > 100 µM (inactive).
With `C=CCc1ccccc1OCC(O)CN1CCN(CCN2C(=O)c3cccc4cccc(c34)C2=O)CC1` (centres undefined), the IC50 was > 100 µM (inactive).
Next, `COc1cccc(NC(=O)CCCCCN2C(=O)c3cccc([N+](=O)[O-])c3C2=O)c1`: > 100 µM (inactive).
Take `O=C(CCCCCN1C(=O)c2ccccc2C1=O)NCc1ccco1`: the IC50 is > 100 µM (inactive).
The value for `O=C(CCCCCN1C(=O)c2cccc3cccc(c23)C1=O)NCc1cccnc1` was > 100 µM (inactive); that for `COc1ccc(NC(=O)CCCCCN2C(=O)c3cccc([N+](=O)[O-])c3C2=O)cc1` was > 100 µM (inactive); that for `COc1ccc(CCNC(=O)CCCCCN2C(=O)c3ccccc3C2=O)cc1` was > 100 µM (inactive).
The value for `Cc1ccc(NC(=O)C2CCN(c3ncnc4c3nc3n4CCCCC3)CC2)cc1Cl` was > 100 µM (inactive); that for `Cc1ccccc1CN1CCC(CNC(=O)C2CCCN(c3ncnc4c3nc3n4CCCCC3)C2)CC1` (centres undefined) was > 100 µM (inactive); that for `O=C(C1CCN(c2ncnc3c2nc2n3CCCCC2)CC1)N1CCC(Cc2ccccc2)CC1` was > 100 µM (inactive).
`O=C(C1CCN(c2ncnc3c2nc2n3CCCCC2)CC1)N1CCN(Cc2ccccc2)CC1`: the IC50 is > 100 µM (inactive).
`COc1ccc(COCC(O)CN2CCC(CN3C(=O)c4cccc5cccc(c45)C3=O)CC2)cc1OC` (centres undefined): the IC50 was > 100 µM (inactive).
Take `CN1CCN(CCCNC(=O)c2ccc(/C=C3\Oc4ccccc4N(Cc4ccc(Cl)cc4)C3=O)cc2)CC1`: the IC50 is > 100 µM (inactive).
Turning to `CCc1ccc2nc(N(CCCN(C)C)C(=O)c3ccc(S(=O)(=O)N4CCc5ccccc5C4)cc3)sc2c1`, the IC50 was > 100 µM (inactive).
`Cc1c(NC(=O)CCCN2C(=O)c3cccc4cccc(c34)C2=O)c(=O)n(-c2ccccc2)n1C`: the IC50 is > 100 µM (inactive).
Turning to `O=C1c2cccc3cccc(c23)C(=O)N1CCN1CCN(CC(O)COc2ccc(C3CCCCC3)cc2)CC1` (centres undefined), the IC50 was > 100 µM (inactive).
Take `O=C1c2cccc3cccc(c23)C(=O)N1CCN1CCN(CC(O)COc2ccc(Cl)cc2)CC1` (centres undefined): the IC50 was > 100 µM (inactive).
On to `CCCCOC(=O)c1cccc(NC(=O)CCCCCN2C(=O)c3ccccc3C2=O)c1`, for which the IC50 is > 100 µM (inactive).
As for `O=C(NCCCN1CCN(c2ccc(F)cc2)CC1)C1CCCN(c2ncnc3c2nc2n3CCCCC2)C1` (centres undefined), the IC50 is > 100 µM (inactive).
For `CCOC(=O)c1c(NC(=O)COc2ccccc2C#N)sc2c1CC(C)(C)NC2(C)C`, the IC50 was > 100 µM (inactive).
As to `CC(C)(C)c1ccc(OCC(O)CN2CCN(CCN3C(=O)c4cccc5cccc(c45)C3=O)CC2)cc1` (centres undefined), the IC50 was > 100 µM (inactive).
Next, `Cc1ccc(-c2oc3ncnc(N)c3c2-c2ccc(C)cc2)cc1`: > 100 µM (inactive); `Cc1cc(C)c2sc(N(CCCN(C)C)C(=O)c3ccc(S(=O)(=O)N(C)Cc4ccccc4)cc3)nc2c1`: > 100 µM (inactive).
Next, `CCCOC(=O)c1ccc(NC(=O)CCCCCN2C(=O)c3ccccc3C2=O)cc1`: > 100 µM (inactive).
Turning to `CN(C)CCCN(C(=O)c1ccc(S(=O)(=O)N2CCCCC2)cc1)c1nc2cc3c(cc2s1)OCO3`, the IC50 was > 100 µM (inactive).
For `O=C(CCCCCN1C(=O)c2cccc([N+](=O)[O-])c2C1=O)NCc1ccccc1`, the IC50 is > 100 µM (inactive).
As for `CC(NC(=O)CCCCCN1C(=O)c2cccc([N+](=O)[O-])c2C1=O)c1ccccc1` (centres undefined), the IC50 was > 100 µM (inactive).
As to `Cc1cc(OCC(O)CN2CCN(CCN3C(=O)c4cccc5cccc(c45)C3=O)CC2)ccc1C(C)C` (centres undefined), the IC50 was > 100 µM (inactive).
Next, `O=C(CCCCCN1C(=O)c2ccccc2C1=O)NCc1ccccn1`: > 100 µM (inactive).
The value for `CC(=O)Nc1ccc(OCC(O)CN2CCN(CCN3C(=O)c4cccc5cccc(c45)C3=O)CC2)cc1` (centres undefined) was > 100 µM (inactive); that for `CCOc1ccc2nc(N(CCCN(C)C)C(=O)c3ccc(S(=O)(=O)N4CCc5ccccc5C4)cc3)sc2c1` was > 100 µM (inactive).
Next, `CN(C)CCCN(C(=O)c1ccc(S(=O)(=O)N2CCCCCC2)cc1)c1nc2ccc(Br)cc2s1`: > 100 µM (inactive); `O=C(CCCCCN1C(=O)c2ccccc2C1=O)Nc1ccc(S(=O)(=O)N2CCCCC2)cc1`: > 100 µM (inactive); `Cc1cc(NC(=O)Cn2c(=O)n(CCCCC(=O)NC3CCN(Cc4ccccc4)CC3)c(=O)c3ccccc32)n[nH]1`: > 100 µM (inactive).
`COc1ccc(OC)c2sc(N(CCCN(C)C)C(=O)c3ccc(S(=O)(=O)N4CCc5ccccc5C4)cc3)nc12`: the IC50 was > 100 µM (inactive).
The value for `COc1ccc(C)c2sc(N(CCCN(C)C)C(=O)c3ccc(S(=O)(=O)N(C)C)cc3)nc12` was > 100 µM (inactive); that for `COCCOC(=O)c1ccc(NC(=O)CCCCCN2C(=O)c3ccccc3C2=O)cc1` was > 100 µM (inactive).
Next, `O=C(NCCCN1CCCCC1)C1CCN(c2ncnc3c2nc2n3CCCCC2)CC1`: > 100 µM (inactive); `O=C(CCCCCN1C(=O)c2ccccc2C1=O)NCc1ccccc1`: > 100 µM (inactive).
As for `COc1cc(/C=C/c2cc[n+](C)cc2)ccc1OCC(=O)Nc1ccc(Cl)c(Cl)c1`, the IC50 is > 100 µM (inactive).
`O=C(NCCCN1CCN(c2ccccc2)CC1)C1CCCN(c2ncnc3c2nc2n3CCCCC2)C1` (centres undefined): the IC50 was > 100 µM (inactive).

What is called IC50 is the point on the concentration scale where inhibition reaches its midpoint.

(Values after PubChem BioAssay AID504680 (Sanford-Burnham Center for Chemical Genomics, 2011).)
